# Experimental data from paper PMC7206119, “RIP1 inhibition blocks inflammatory diseases but not tumor growth or metastases” (Cell Death and Differentiation, 2019).
# How the values were obtained:
# Experiment in all cases: biochemical
# Parameters in all cases: DiscoverX kinase panel, active-site competition binding (KINOMEscan type), percent of control at one concentration
# Conditions in all cases: competition binding, percent of control
# YSK1 = target: T1, YSK1 (Homo sapiens, UniProt O00506)
# T1 construct: gene STK25
# Description: (§1) To investigate the potential therapeutic benefit of inhibiting RIP1, we developed GNE684 or (S)-N-((S)-7-methoxy-1-methyl-2-oxo-2,3,4,5-tetrahydro-1H-pyrido[3,4-b]azepin-3-yl)-5-phenyl-6,7-dihydro-5H-pyrrolo[1,2-b][1,2,4]triazole-2-carboxamide with cross-species potency against RIP1, exquisite kinase selectivity, and favorable pharmacological properties (Fig. 1a–h, S1, Tables S1 and S2, SI file 1). […] (Fig. 1b, S1, and Table S1). […] GNE684 inhibited human RIP1 potently in vitro, and mouse and rat RIP1 with slightly less potency (Fig. 1d). Accordingly, it inhibited TNF-induced necroptosis in human HT-29, mouse L929, or rat H9c2 cells (Fig. 1e). The cellular potency of GNE684 was confirmed in a human whole blood assay using TBZ (TNF, IAP antagonist BV6, and pan-caspase inhibitor zVAD) or LZ (LPS plus zVAD) to trigger necroptosis and the release of IL-1α and IL-1β (Fig. 1f).
# [1] = target: T2, RSK4(Kin.Dom.2-C-terminal) (Homo sapiens, UniProt Q9UK32)
# T2 construct: gene RPS6KA6; Kin.Dom.2-C-terminal
# Description: as §1
# EGFR(L861Q) = EGFR(L861Q) (Homo sapiens, UniProt P00533, L861Q)
# Description: as §1
# ADCK4 = target: T3, ADCK4 (Homo sapiens, UniProt Q96D53)
# T3 construct: gene COQ8B
# Description: as §1
# CDKL5 = CDKL5 (Homo sapiens, UniProt O76039)
# Sequence of CDKL5 (O76039 whole entry): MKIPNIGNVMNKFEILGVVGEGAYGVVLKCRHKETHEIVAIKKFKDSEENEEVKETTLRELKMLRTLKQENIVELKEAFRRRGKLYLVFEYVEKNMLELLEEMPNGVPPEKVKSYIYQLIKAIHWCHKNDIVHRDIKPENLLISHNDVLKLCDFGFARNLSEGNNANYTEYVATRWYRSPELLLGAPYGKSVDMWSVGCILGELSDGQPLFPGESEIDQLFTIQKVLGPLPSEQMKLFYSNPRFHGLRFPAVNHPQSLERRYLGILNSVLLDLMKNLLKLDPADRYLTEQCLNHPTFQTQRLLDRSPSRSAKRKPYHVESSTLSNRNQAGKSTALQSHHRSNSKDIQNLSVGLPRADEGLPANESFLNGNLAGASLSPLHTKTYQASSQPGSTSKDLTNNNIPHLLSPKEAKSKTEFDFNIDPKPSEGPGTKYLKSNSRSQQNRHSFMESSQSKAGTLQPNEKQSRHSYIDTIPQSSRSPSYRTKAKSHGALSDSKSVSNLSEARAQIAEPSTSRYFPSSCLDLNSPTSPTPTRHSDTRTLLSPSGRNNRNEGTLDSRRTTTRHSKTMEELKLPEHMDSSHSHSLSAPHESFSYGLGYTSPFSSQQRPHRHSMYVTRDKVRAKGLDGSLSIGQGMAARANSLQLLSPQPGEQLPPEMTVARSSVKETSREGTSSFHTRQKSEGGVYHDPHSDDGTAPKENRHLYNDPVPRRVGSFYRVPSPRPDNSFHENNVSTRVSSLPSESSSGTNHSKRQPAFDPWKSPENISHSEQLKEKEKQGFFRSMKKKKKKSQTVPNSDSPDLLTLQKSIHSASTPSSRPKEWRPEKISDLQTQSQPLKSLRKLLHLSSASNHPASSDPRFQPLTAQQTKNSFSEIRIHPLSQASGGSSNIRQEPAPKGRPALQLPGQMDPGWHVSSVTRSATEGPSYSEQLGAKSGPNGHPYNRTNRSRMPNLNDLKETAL
# Description: as §1
# IRAK3 = IRAK3 (Homo sapiens, UniProt Q9Y616)
# Description: as §1
# WEE2 = WEE2 (Homo sapiens, UniProt P0C1S8)
# Description: as §1
# ERK2 = target: T4, ERK2 (Homo sapiens, UniProt P28482)
# T4 construct: gene MAPK1
# Description: as §1
# [2] = target: T5, RSK1(Kin.Dom.2-C-terminal) (Homo sapiens, UniProt Q15418)
# T5 construct: gene RPS6KA1; Kin.Dom.2-C-terminal
# Description: as §1
# MST2 = target: T6, MST2 (Homo sapiens, UniProt Q13188)
# T6 construct: gene STK3
# Description: as §1
# NEK4 = NEK4 (Homo sapiens, UniProt P51957)
# Sequence of NEK4 (P51957 whole entry): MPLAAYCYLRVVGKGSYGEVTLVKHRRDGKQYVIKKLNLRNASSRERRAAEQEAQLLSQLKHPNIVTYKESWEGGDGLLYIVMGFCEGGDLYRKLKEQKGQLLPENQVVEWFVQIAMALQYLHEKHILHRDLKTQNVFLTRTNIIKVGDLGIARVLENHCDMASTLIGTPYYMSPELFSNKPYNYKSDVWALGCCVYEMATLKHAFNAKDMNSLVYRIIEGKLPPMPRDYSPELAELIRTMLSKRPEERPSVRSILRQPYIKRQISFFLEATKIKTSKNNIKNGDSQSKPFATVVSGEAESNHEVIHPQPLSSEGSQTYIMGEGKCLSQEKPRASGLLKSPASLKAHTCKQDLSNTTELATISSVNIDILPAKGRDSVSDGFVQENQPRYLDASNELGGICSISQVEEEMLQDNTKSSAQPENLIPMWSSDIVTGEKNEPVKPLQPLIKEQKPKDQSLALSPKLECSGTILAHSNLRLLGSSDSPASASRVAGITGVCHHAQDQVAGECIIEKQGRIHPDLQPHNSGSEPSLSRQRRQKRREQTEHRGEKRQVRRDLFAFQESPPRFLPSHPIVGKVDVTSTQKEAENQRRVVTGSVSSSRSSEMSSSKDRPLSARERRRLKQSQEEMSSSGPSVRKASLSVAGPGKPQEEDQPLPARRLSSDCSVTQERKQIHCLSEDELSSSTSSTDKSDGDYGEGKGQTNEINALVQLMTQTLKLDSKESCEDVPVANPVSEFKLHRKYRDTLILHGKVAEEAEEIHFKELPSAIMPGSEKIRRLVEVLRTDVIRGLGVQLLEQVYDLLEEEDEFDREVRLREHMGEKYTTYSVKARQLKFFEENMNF
# Description: as §1
# CSK = CSK (Homo sapiens, UniProt P41240)
# Description: as §1
# [3] = target: T7, RSK1(Kin.Dom.1-N-terminal) (Homo sapiens, UniProt Q15418)
# T7 construct: gene RPS6KA1; Kin.Dom.1-N-terminal
# Description: as §1
# BRAF = BRAF (Homo sapiens, UniProt P15056)
# Description: as §1
# NDR1 = target: T8, NDR1 (Homo sapiens, UniProt Q15208)
# T8 construct: gene STK38
# Description: as §1
# EPHB4 = EPHB4 (Homo sapiens, UniProt P54760)
# Description: as §1
# CAMK2G = CAMK2G (Homo sapiens, UniProt Q13555)
# Description: as §1
# EPHA1 = EPHA1 (Homo sapiens, UniProt P21709)
# Sequence of EPHA1 (P21709 whole entry): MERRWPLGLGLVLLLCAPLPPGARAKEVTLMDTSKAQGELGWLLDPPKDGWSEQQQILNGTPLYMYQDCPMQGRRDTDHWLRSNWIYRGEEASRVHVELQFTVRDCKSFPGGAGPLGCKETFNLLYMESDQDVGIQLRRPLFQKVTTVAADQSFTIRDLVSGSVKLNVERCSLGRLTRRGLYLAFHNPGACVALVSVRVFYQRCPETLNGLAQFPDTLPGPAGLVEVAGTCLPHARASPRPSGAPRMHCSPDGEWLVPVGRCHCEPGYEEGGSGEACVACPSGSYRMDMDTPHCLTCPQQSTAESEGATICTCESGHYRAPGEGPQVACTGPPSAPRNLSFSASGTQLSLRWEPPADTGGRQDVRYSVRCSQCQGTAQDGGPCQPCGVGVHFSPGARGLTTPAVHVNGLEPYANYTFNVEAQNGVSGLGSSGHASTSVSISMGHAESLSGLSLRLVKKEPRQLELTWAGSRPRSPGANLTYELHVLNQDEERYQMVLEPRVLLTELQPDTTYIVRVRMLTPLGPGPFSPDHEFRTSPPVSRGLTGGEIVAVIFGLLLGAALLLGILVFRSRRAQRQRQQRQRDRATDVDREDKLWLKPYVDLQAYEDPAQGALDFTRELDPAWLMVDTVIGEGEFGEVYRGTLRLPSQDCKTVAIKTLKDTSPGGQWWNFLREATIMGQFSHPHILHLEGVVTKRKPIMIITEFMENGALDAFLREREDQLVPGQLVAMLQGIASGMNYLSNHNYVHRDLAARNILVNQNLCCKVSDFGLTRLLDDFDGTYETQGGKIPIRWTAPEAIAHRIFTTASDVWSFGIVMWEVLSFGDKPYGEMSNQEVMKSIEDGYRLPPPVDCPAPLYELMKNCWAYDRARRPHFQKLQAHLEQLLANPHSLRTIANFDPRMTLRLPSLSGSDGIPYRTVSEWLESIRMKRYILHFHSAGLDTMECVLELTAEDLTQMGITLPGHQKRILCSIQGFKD
# Description: as §1
# TRPM6 = TRPM6 (Homo sapiens, UniProt Q9BX84)
# Description: as §1
# ROS1 = ROS1 (Homo sapiens, UniProt P08922)
# Sequence of ROS1 (P08922 whole entry): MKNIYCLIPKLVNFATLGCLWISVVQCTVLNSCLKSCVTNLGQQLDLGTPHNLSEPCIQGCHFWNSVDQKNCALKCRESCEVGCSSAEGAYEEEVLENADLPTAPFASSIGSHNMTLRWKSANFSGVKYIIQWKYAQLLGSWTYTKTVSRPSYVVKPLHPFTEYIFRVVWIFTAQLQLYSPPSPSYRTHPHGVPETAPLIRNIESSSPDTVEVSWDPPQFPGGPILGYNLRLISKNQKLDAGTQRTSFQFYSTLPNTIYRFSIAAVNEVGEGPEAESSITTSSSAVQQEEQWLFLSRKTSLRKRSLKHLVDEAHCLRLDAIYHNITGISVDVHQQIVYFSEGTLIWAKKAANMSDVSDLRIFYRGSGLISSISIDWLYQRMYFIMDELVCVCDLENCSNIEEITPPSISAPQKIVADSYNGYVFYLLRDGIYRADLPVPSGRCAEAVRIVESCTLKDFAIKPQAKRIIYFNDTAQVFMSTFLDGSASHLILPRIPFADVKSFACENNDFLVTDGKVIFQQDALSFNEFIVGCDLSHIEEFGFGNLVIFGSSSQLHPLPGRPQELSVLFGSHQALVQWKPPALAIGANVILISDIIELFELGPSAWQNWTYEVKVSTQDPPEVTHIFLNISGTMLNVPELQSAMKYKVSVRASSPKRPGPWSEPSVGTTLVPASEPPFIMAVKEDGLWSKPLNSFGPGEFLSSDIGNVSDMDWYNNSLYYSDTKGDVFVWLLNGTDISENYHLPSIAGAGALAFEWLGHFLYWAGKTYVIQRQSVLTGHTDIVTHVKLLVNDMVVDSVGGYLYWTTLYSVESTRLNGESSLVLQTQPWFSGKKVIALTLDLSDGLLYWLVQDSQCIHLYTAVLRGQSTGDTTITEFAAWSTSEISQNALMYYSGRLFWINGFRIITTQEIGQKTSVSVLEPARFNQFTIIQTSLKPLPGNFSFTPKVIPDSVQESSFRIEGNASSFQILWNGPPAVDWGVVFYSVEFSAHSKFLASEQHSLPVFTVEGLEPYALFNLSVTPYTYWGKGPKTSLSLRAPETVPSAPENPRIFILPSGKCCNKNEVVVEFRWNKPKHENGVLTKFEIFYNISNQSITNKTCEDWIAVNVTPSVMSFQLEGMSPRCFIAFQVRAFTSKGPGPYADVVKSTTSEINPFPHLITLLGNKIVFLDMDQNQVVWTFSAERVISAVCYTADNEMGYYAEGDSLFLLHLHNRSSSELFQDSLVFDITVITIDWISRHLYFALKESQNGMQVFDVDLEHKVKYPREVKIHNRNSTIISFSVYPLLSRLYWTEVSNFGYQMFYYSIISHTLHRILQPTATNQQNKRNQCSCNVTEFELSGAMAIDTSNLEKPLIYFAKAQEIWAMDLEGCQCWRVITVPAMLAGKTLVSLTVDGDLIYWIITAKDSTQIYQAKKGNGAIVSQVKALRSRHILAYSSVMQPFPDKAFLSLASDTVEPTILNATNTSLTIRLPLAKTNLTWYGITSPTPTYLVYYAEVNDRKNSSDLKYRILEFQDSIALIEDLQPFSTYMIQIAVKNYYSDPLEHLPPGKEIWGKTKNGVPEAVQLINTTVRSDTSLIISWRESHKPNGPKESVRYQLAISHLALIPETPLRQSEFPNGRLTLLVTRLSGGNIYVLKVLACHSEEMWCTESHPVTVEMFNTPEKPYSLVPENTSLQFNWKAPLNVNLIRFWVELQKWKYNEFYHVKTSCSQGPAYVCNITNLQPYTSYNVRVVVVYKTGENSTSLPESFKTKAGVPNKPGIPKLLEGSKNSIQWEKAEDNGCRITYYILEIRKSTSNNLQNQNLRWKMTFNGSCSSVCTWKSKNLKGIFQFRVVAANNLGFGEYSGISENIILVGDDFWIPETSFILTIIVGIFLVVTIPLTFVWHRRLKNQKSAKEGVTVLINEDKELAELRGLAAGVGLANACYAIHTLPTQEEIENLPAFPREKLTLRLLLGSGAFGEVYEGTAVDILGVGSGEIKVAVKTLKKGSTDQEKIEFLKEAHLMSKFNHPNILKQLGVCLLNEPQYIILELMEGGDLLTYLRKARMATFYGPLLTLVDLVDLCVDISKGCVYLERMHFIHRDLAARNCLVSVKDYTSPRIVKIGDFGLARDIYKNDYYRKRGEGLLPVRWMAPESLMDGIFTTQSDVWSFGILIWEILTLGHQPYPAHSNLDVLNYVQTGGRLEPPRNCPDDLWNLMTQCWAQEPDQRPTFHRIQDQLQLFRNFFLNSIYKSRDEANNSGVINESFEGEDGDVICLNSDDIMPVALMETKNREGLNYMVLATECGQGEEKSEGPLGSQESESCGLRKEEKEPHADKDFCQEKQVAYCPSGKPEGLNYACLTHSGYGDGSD
# Description: as §1
# KIT(D816V) = KIT(D816V) (Homo sapiens, UniProt P10721, D816V)
# Description: as §1
structure (smiles),measurement,setting,value
"COc1cc2c(cn1)N(C)C(=O)[C@@H](NC(=O)c1nc3n(n1)[C@H](c1ccccc1)CC3)CC2 [GNE684, (S)-N-((S)-7-methoxy-1-methyl-2-oxo-2,3,4,5-tetrahydro-1H-pyrido[3,4-b]azepin-3-yl)-5-phenyl-6,7-dihydro-5H-pyrrolo[1,2-b][1,2,4]triazole-2-carboxamide]",remaining binding at 10 µM,YSK1,90%
same,remaining binding at 10 µM,[1],95%
same,remaining binding at 10 µM,EGFR(L861Q),96%
same,remaining binding at 10 µM,ADCK4,100%
same,remaining binding at 10 µM,CDKL5,79%
same,remaining binding at 10 µM,IRAK3,100%
same,remaining binding at 10 µM,WEE2,95%
same,remaining binding at 10 µM,ERK2,100%
same,remaining binding at 10 µM,[2],100%
same,remaining binding at 10 µM,MST2,100%
same,remaining binding at 10 µM,NEK4,100%
same,remaining binding at 10 µM,CSK,100%
same,remaining binding at 10 µM,[3],98%
same,remaining binding at 10 µM,BRAF,98%
same,remaining binding at 10 µM,NDR1,79%
same,remaining binding at 10 µM,EPHB4,100%
same,remaining binding at 10 µM,CAMK2G,100%
same,remaining binding at 10 µM,EPHA1,93%
same,remaining binding at 10 µM,TRPM6,87%
same,remaining binding at 10 µM,ROS1,96%
same,remaining binding at 10 µM,KIT(D816V),100%
